This passage reports IC50 results from patent US20060111378A1, “Substituted 2-anilinopyrimidines as cell-cycle-kinase or receptor-tyrosine-kinase inhibitors, their production and use as pharmaceutical agents” (priority 2004, published 2006).

The target in assay [1] is T1, CDK2/CycE (Homo sapiens, UniProt P24941).
T1 construct: GST; purchased ProQinase GmbH, Freiburg; host or cells: baculovirus-infected insect cells (Sf9)
Kind of assay: CDK2/CycE kinase assay. In kind it is biochemical. To be noted: histone IIIS substrate, 0.5 μm ATP. How it is done: Recombinant CDK2- and CycE-GST-fusion proteins, purified from baculovirus-infected insect cells (Sf9), were purchased by ProQinase GmbH, Freiburg. Histone IIIs, which was used as a kinase substrate, was purchased by the Sigma Company.
CDK2/CycE (50 ng/measuring point) was incubated for 10 minutes at 22° C. in the presence of various concentrations of test substances (0 μm, as well as within the range of 0.01-100 μm) in assay buffer [50 mmol of tris/HCl, pH 8.0, 10 mmol of MgCl2, 0.1 mmol of Na ortho-vanadate, 1.0 mmol of dithiothreitol, 0.5 μm of adenosine triphosphate (ATP), 10 μg/measuring point of histone IIIS, 0.2 μCi/measuring point of ^33P-gamma ATP, 0.05% NP40, 12.5% dimethyl sulfoxide]. The reaction was stopped by adding EDTA solution (250 mmol, pH 8.0, 15 μl/measuring point).
From each reaction batch, 15 μl was applied to P30 filter strips (Wallac Company), and non-incorporated ^33P-ATP was removed by subjecting the filter strips to three washing cycles for 10 minutes each in 0.5% phosphoric acid. After the filter strips were dried for one hour at 70° C., the filter strips were covered with scintillator strips (MeltiLex™ A, Wallac Company) and baked for one hour at 90° C. The amount of incorporated ^33P (substrate phosphorylation) was determined by scintillation measurement in a gamma-radiation measuring device (Wallac).

For assay [2], the system named is NCI-H460, human non-small-cell lung cancer cells. Kind of assay: Proliferation assay H460. The format is cell-based. The note with it: NCI-H460, 96 h, 4 days, crystal violet. An excerpt:
(§1) Cultivated human tumor cells (MCF7, hormone-independent human breast cancer cells, related to ATCC HTB22; NCI-H460, human non-small-cell lung cancer cells, ATCC HTB-177, DU 145, hormone-independent human prostate cancer cells, ATCC HTB-81; MaTu-MDR, hormone-independent, multiple pharmaceutical agent-resistant human breast cancer cells, EPO-GmbH, Berlin) were flattened out at a density of about 3000-5000 cells/measuring point, depending on the growth rate of the respective cells, in a 96-well multititer plate in 200 μl of the corresponding growth medium. After 24 hours, the cells of one plate (zero-point plate) were colored with crystal violet (see below), while the medium of the other plates was replaced by fresh culture medium (200 μl), to which the test substances were added in various concentrations (0 μm, as well as in the range of 0.01-30 μm; the final concentration of the solvent dimethyl sulfoxide was 0.5%). The cells were incubated for 4 days in the presence of test substances. The cell proliferation was determined by coloring the cells with crystal violet: the cells were fixed by adding 20 μl/measuring point of an 11% glutaric aldehyde solution for 15 minutes at room temperature. After three washing cycles of the fixed cells with water, the plates were dried at room temperature. The cells were colored by adding 100 μl/measuring point of a 0.1% crystal violet solution (the pH was set at 3 by adding acetic acid). After three washing cycles of the colored cells with water, the plates were dried at room temperature. The dye was dissolved by adding 100 μl/measuring point of a 10% acetic acid solution. The extinction was determined by photometry at a wavelength of 595 nm. The change of cell growth, in percent, was calculated by normalization of the measured values to the extinction values of the zero-point plate (=0%) and the extinction of the untreated (0 μm) cells (=100%).

In assay [3] the target is T2, VEGF receptor tyrosine kinase-2 (Homo sapiens, UniProt P35968).
T2 construct: GST; made in house; host or cells: baculovirus-infected insect cells (Sf9)
T2 sequence (P35968 20-1356): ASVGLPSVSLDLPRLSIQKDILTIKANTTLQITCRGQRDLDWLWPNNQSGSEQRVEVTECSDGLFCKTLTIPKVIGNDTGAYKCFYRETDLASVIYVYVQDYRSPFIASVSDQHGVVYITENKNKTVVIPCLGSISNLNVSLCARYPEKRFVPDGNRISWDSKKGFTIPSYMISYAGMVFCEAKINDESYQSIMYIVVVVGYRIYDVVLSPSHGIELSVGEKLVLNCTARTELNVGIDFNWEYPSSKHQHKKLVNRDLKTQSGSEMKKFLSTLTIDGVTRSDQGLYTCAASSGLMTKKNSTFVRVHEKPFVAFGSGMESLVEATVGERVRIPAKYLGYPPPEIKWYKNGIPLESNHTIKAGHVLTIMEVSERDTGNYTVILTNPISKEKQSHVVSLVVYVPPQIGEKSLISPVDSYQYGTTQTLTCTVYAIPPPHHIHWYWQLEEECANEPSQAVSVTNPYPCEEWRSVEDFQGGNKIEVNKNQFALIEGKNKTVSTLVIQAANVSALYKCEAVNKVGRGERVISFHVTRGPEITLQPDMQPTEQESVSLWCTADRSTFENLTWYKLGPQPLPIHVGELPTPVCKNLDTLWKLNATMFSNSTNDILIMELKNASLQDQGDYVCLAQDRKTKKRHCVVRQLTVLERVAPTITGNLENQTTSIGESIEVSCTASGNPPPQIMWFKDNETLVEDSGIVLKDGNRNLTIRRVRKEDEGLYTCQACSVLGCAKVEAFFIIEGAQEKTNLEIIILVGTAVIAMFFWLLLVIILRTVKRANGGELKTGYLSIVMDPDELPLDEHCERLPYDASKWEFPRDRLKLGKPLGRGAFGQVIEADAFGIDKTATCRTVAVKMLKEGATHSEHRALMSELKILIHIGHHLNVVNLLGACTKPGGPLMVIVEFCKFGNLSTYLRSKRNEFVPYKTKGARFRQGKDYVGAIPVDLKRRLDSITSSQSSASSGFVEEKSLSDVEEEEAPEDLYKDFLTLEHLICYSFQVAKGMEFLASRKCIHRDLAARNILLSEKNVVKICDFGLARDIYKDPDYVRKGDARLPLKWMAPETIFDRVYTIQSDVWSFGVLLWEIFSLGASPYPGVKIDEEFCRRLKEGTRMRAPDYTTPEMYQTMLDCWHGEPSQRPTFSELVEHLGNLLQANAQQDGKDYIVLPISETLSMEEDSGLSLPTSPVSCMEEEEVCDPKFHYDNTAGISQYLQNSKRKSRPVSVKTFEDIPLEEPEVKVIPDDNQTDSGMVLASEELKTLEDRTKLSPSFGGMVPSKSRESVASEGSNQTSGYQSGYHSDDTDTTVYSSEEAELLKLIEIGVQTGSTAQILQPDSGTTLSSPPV
Kind of assay: VEGF receptor-2 kinase assay. The format is biochemical. The note with it: poly-(Glu4Tyr) substrate, 8 μmol ATP; read-out: VEGF-R2 IC50. On the procedure:
VEGF Receptor-2 Kinase Assay
Recombinant VEGF receptor tyrosine kinase-2 was purified as a GST fusion protein from baculovirus-infected insect cells (Sf9). Poly-(Glu4Tyr), which was used as a kinase substrate, was purchased by the Sigma Company. VEGF receptor tyrosine kinase (90 ng/measuring point) was incubated for 10 minutes at 22° C. in the presence of various concentrations of test substances (0 μm, as well as within the range of 0.001-30 μm) in 30 μl of assay buffer [40 mmol of Tris/HCl, pH 5.5, 10 mmol of MgCl2, 1 mmol of MnCl2, 3 μmol of Na ortho-vanadate, 1.0 mmol of dithiothreitol, 8 μmol of adenosine trisphosphate (ATP), 0.96 μg/measuring point of poly-(Glu4Tyr), 0.2 μCi/measuring point of 33P-gamma ATP, 1.4% dimethyl sulfoxide]. The reaction was stopped by adding EDTA solution (250 mmol, pH 8.0, 15 μl/measuring point).
(§2) From each reaction batch, 15 μl was applied to P30 filter strips (Wallac Company), and non-incorporated 33P-ATP was removed by subjecting the filter strips to three washing cycles for 10 minutes each in 0.5% phosphoric acid. After the filter strips were dried for one hour at 70° C., the filter strips were covered with scintillator strips (MeltiLex™ A, Wallac Company) and baked for one hour at 90° C. The amount of incorporated 33P (substrate phosphorylation) was determined by scintillation measurement in a gamma-radiation measuring device (Wallac).

For assay [4], the target named is Human Carboanhydrase-2 (Homo sapiens, UniProt P00918). Kind of assay: Carboanhydrase assay. In kind it is biochemical. The note with it: 4-nitrophenyl acetate hydrolysis, 60 minutes; read-out: Inhibition of Human Carboanhydrase-2 IC50. On the procedure:
2 μl of the test compounds, dissolved in DMSO (100× the final concentration), in a concentration range of 0.03-10 μm (final), was pipetted as 4× determinations into the holes of a 96-hole microtiter plate. Holes that contained the solvent without test compounds were used as reference values (1. Holes without carboanhydrase for correction of the non-enzymatic hydrolysis of the substrate, and 2. Holes with carboanhydrase for determining the activity of the non-inhibited enzyme).
188 μl of assay buffer (10 mmol of Tris/HCl, pH 7.4, 80 mmol of NaCl), with or without 3 units/hole on carboanhydrase I or II, was pipetted into the holes of the microtiter plate.

Assay [5] deals with T3, CDK1/CycB (Homo sapiens, UniProt P06493).
T3 construct: GST; purchased ProQinase GmbH, Freiburg; host or cells: baculovirus-infected insect cells (Sf9)
T3 sequence (P06493 whole entry): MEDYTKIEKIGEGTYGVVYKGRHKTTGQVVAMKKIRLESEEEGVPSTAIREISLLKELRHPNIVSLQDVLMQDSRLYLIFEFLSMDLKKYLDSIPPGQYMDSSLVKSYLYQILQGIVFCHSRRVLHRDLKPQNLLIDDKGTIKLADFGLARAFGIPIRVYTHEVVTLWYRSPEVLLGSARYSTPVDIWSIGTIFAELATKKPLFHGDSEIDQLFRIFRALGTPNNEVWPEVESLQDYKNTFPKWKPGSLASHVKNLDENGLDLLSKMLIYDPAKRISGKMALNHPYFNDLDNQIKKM
T3 sequence (P14635 whole entry partner): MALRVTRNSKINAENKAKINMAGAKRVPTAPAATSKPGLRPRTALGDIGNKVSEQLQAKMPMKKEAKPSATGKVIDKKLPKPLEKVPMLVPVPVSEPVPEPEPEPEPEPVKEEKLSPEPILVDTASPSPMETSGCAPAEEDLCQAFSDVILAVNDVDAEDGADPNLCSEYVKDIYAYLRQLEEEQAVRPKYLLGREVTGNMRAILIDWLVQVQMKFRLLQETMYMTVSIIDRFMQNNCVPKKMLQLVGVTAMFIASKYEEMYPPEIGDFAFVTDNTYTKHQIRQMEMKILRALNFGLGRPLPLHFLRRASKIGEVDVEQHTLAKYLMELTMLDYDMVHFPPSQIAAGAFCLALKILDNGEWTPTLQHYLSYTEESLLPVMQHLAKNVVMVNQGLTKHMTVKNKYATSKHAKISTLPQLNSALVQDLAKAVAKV
Kind of assay: CDK1/CycB kinase assay. The format is biochemical. The note with it: histone IIIS substrate, 0.5 μm ATP. On the procedure:
Recombinant CDK1- and CycB-GST-fusion proteins, purified from baculovirus-infected insect cells (Sf9), were purchased from ProQinase GmbH, Freiburg. Histone IIIS, used as a kinase substrate, is available commercially from the Sigma Company.
CDK1/CycB (200 ng/measuring point) was incubated for 10 minutes at 22° C. in the presence of various concentrations of test substances (0 μm, as well as within the range of 0.01-100 μm) in assay buffer [50 mmol of tris/HCl, pH 8.0, 10 mmol of MgCl2, 0.1 mmol of Na ortho-vanadate, 1.0 mmol of dithiothreitol, 0.5 μm of adenosine triphosphate (ATP), 10 μg/measuring point of histone IIIS, 0.2 μCi/measuring point of 33P-gamma ATP, 0.05% NP40, 1.25% dimethyl sulfoxide]. The reaction was stopped by adding EDTA solution (250 mmol, pH 8.0, 15 μl/measuring point).
as §2

In assay [6] the test system is MaTu-ADR. Kind of assay: Proliferation assay MaTu-ADR. In kind it is cell-based. The note with it: Homo sapiens, 96 h; MaTu-ADR cells, 4 days, crystal violet.
Excerpt: as §1

Assay [7] has as its system DU 145, hormone-independent human prostate cancer cells. Kind of assay: Proliferation assay DU145. The format is cell-based. The note with it: DU-145, 96 h, 4 days, crystal violet.
Excerpt: as §1

The test system of assay [8] is MCF7, hormone-independent human breast cancer cells. Kind of assay: Proliferation assay MCF7. The format is cell-based. The note with it: 96 h, 4 days, crystal violet.
Excerpt: as §1

Each structure is given as a SMILES string.

Regarding `Cc1cc(Nc2ncc(Br)c(N[C@H](C)CO)n2)cc(C)c1S(N)(=O)=O` [Example 1, 4-[5-Bromo-4-((R)-2-hydroxy-1-methyl-ethylamino)-pyrimidin-2-ylamino]-2,6-dimethyl-benzenesulfonamide], the IC50 in assay [1] is 14 nM; in assay [2] it was 300 nM; in assay [3] it was 18 nM; in assay [4], above 10000 nM; in assay [5] it was 15 nM; in assay [6] it was 400 nM. The IC50 turned out to be 400 nM in assay [7] and 600 nM in assay [8].

Turning to `Cc1cc(Nc2ncc(Br)c(N[C@H](C)C(C)(C)O)n2)cc(C)c1S(N)(=O)=O` [Example 2], the IC50 in assay [1] is 2 nM; in assay [2] it was 130 nM; in assay [3], 20 nM; in assay [4], above 10000 nM; in assay [5] it was 3 nM; in assay [6], 70 nM. Besides, the 50% inhibitory concentration (IC50) is 90 nM in assay [7] and below 100 nM in assay [8].

Regarding `Cc1cc(Nc2ncc(Br)c(N[C@H](C)[C@@H](C)O)n2)cc(C)c1S(N)(=O)=O` [Example 3], the IC50 in assay [1] is 6 nM; in assay [2] it was 50 nM; in assay [3] it was 19 nM; in assay [4], above 10000 nM; in assay [5] it was 5 nM; in assay [6], 40 nM. In addition, the IC50 is 70 nM in assay [7] and below 100 nM in assay [8].

With `Cc1cc(Nc2ncc(Br)c(N[C@H](C)[C@@H](C)O)n2)cc(Cl)c1S(N)(=O)=O` [Example 4], the IC50 in assay [1] was 10 nM; in assay [2], below 100 nM; in assay [3] it was 130 nM; in assay [5], 5 nM; in assay [6] it was below 100 nM; in assay [7] it was 100 nM. Also, in assay [8], the IC50 amounted to 120 nM.

With `Cc1cc(Nc2ncc(Br)c(O[C@H](C)[C@@H](C)O)n2)cc(C)c1S(N)(=O)=O` [Example 6, 4-[5-Bromo-4-((1R,2R)-2-hydroxy-1-methyl-propoxy)-pyrimidin-2-ylamino]-2,6-dimethyl-benzenesulfonamide], the IC50 in assay [1] was 8 nM; in assay [2], 50 nM; in assay [3], 39 nM; in assay [4], above 10000 nM; in assay [5] it was 8 nM; in assay [6] it was 20 nM. Further, the 50% inhibitory concentration (IC50) in assay [7] and in assay [8] was 50 nM each time.

Take `Cc1cc(Nc2ncc(Br)c(O[C@H](C)[C@@H](C)O)n2)cc(Br)c1S(N)(=O)=O` [Example 7]: the half-inhibitory concentration (IC50) in assay [1] was 15 nM; in assay [2] it was 160 nM; in assay [3], 56 nM; in assay [4], 6000 nM; in assay [5], 12 nM; in assay [6], 50 nM. The concentration for half-maximal inhibition (IC50) in assay [7] stood at 160 nM; in assay [8], 120 nM.

Take `C[C@@H](Nc1nc(Nc2ccc(S(N)(=O)=O)cc2)ncc1Br)C(C)(C)O` [Example 271 from WO 02/096888, 4-[5-Bromo-4-((R)-2-hydroxy-1,2-dimethyl-propylamino)-pyrimidin-2-ylamino]-benzenesulfonamide, reference compound]: the IC50 was below 10 nM in assay [1]; 200 nM in assay [2]; 250 nM in assay [3]; 530 nM in assay [4]; below 10 nM in assay [5]; below 100 nM in assay [6]. For the same compound, the values for the IC50 in assay [7] and in assay [8] were 150 nM and 180 nM, respectively.

For the compound `C[C@@H](O)[C@@H](C)Nc1nc(Nc2ccc(S(N)(=O)=O)cc2)ncc1Br` [Example 275 from WO 02/096888, 4-[5-Bromo-4-((1R,2R)-2-hydroxy-1-methyl-propylamino)-pyrimidin-2-ylamino]-benzenesulfonamide, reference compound], the IC50 is below 10 nM in assay [1]; 40 nM in assay [2]; 130 nM in assay [3]; 810 nM in assay [4]; below 10 nM in assay [5]; 20 nM in assay [6]. The IC50 in assay [7] stood at 70 nM; in assay [8], 50 nM.

By IC50 is commonly meant the concentration that gives 50% inhibition.
